Assay results: patent US12281122B1, “PI3K inhibitors” (Cogent Biosciences, Inc., priority 2023, dated 2025)

What was measured:
[1] = molecular target: PI3Kα (Homo sapiens, UniProt P42336); assay: PI3Kα enzyme assay (Transcreener ADP2 TR-FRET Red Assay); type: biochemical; settings: purified recombinant full-length protein; 2 hours pre-incubation with compound; read-out: PI3Kα WT IC50
Protocol: (§1) Activity against PI3Kα and PI3Kα H1047R enzymes were determined in biochemical assays using purified recombinant full-length proteins with the Transcreener ADP^2 TR-FRET Red Assay from Bellbrook Labs. (Catalogue number 3011-10K). Test compounds were dissolved in DMSO and were tested in 11 point 1:3 serial dilutions, typical final concentration range from 50,000 nM to 0.85 nM. Enzymes were pre-incubated with compounds for 2 hours at room temperature prior to initiating the reactions. Assays were initiated with a 2×ATP/PI(4,5)P2 diC8 substrate mixture. After 60 minutes at room temperature, the reactions were quenched with detection reagent and incubated for an additional 60 minutes at room temperature. The plates were read using a multimode reader and the emission ratio of 665 nm to 615 nm was determined. This ratio was converted to percent of control (POC). [1-(high control-sample signal)/(high control-low control)]*100. Wells without compound were used to determine high control values and wells without enzyme were used to determine low control values. The POC values were fit using a four-parameter logistic model and the value where the fit curve was equal to 50 POC was reported as the IC50 using the Signals VitroVivo software package (PerkinElmer). Final assay conditions were: 40 mM HEPES pH 7.5, 20 mM NaCl, 25 mM MgCl2, 0.01% Triton X-100. The enzyme source, catalogue number, final enzyme concentration, and final ATP and PI(4,5)P2 diC8 concentration can be found in the table E10 below.

[2] = molecular target: PI3Kα H1047R (Homo sapiens, UniProt P42336, H1047R); assay: PI3Kα H1047R enzyme assay (Transcreener ADP2 TR-FRET Red Assay); type: biochemical; settings: purified recombinant full-length protein; 2 hours pre-incubation with compound
PI3Kα H1047R, sequence (P42336 whole entry H1047R): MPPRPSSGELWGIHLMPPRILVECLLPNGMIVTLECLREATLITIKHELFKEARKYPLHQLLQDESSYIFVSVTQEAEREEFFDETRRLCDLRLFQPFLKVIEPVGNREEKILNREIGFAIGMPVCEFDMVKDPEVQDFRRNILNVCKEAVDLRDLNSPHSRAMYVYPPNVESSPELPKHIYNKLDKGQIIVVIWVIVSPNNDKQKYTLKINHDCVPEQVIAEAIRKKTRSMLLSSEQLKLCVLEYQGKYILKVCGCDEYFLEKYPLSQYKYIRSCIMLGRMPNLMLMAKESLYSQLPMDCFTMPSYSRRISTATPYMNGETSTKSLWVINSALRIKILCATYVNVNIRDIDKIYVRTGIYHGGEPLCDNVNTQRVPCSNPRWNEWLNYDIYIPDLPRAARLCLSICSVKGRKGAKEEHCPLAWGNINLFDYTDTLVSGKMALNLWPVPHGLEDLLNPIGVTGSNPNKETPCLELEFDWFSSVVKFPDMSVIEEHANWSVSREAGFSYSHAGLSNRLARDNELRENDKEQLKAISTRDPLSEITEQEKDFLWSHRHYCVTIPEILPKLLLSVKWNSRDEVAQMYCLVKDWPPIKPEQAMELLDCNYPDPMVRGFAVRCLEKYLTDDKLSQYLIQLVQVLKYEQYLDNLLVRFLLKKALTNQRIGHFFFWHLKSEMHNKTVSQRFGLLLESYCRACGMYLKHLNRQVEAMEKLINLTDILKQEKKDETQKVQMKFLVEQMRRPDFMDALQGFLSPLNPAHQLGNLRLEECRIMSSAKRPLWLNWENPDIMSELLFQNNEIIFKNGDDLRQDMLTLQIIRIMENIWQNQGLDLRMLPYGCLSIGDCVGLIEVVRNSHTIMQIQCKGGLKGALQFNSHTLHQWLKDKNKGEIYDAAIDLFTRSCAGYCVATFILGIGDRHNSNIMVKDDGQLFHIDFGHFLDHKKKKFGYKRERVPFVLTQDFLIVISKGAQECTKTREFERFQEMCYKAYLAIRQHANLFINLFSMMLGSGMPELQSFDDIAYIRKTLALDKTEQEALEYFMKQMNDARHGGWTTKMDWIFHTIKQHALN
PI3Kα H1047R, sequence (P27986 2-724 partner): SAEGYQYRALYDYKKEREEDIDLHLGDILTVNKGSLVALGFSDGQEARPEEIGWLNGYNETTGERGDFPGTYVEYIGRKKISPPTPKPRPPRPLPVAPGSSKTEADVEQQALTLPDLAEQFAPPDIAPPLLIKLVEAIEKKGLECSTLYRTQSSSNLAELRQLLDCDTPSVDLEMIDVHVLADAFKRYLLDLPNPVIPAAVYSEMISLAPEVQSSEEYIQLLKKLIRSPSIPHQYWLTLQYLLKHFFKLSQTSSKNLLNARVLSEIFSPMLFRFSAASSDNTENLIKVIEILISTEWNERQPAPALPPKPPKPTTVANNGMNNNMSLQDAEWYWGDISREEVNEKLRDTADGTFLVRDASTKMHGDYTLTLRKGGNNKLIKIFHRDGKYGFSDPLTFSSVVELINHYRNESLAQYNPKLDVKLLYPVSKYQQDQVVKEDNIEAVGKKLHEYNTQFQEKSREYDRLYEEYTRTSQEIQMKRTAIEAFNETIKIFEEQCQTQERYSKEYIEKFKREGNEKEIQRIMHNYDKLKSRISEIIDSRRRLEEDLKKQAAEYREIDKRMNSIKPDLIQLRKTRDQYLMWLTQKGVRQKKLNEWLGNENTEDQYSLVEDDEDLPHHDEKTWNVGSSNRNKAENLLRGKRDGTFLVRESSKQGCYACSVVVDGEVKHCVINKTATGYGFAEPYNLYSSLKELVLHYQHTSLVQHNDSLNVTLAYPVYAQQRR
Protocol: as §1

[3] = system: T47D (PI3Kα-H1047R) cell line; assay: HTRF phospho-AKT(S473) cell assay in T47D cells; type: cell-based, human; settings: Homo sapiens; T47D (PI3Kα-H1047R) cells, HTRF phospho-AKT(S473), 2 hours compound incubation
Summary of the method: (§2)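 T47D (PI3Kα-H1047R; RPMI, 10% FBS, insulin) and SKBR3 (wild-type PI3Kα; McCoy's 5A, 10% FBS) cells treated 2 h at 37 °C with 12-point 1:3 dilutions, top 5 μM and 10 μM respectively, ≤0.5% DMSO. SKBR3 stimulated with 70 ng/ml PDGF-BB for the last 15 min; lysate pAKT(S473) by HTRF, IC50 from curves.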

[4] = system: SKBR3 (PI3Kα-Wild Type) cell line; assay: HTRF phospho-AKT(S473) cell assay in SKBR3 cells; type: cell-based, human; settings: Homo sapiens, SK-BR-3; SKBR3 (PI3Kα-Wild Type) cells, HTRF phospho-AKT(S473), 2 hours compound incubation, PDGF-BB stimulated
Summary of the method: as §2

PI3Kα, sequence (P42336 whole entry): as the sequence (P42336 whole entry H1047R) above, with R1047H counted along it
PI3Kα, sequence (P27986 2-724 partner): as the sequence (P27986 2-724 partner) above

Row | IC50 [1] [µM] | IC50 [2] [µM] | IC50 [3] [µM] | IC50 [4] [µM] | Compound
1 | ≥ 1 | ≥ 1 | 0.5 to 1 | ≥ 5 | Cc1cc([C@@H](C)Nc2ccc(Cl)nc2C(=O)NS(C)(=O)=O)c2nc(N3CCc4ccccc4[C@H]3C)n(C)c(=O)c2c1 (mixture of isomers) [Compound 19, 6-chloro-3-(((R)-1-(3,6-dimethyl-2-((R)-1-methyl-3,4-dihydroisoquinolin-2(1H)-yl)-4-oxo-3,4-dihydroquinazolin-8-yl)ethyl)amino)-N-(methylsulfonyl) picolinamide AND 6-chloro-3-(((R)-1-(3,6-dimethyl-2-((S)-1-methyl-3,4-dihydroisoquinolin-2(1H)-yl)-4-oxo-3,4-dihydroquinazolin-8-yl)ethyl)amino)-N-(methylsulfonyl) picolinamide]
2 | ≥ 1 | ≥ 1 | 0.5 to 1 | 1 to 5 | COc1ccc(N[C@H](C)c2cc(C)cc3c(=O)n(C)c(N4Cc5ccc(F)cc5C4)nc23)c(C(=O)NS(C)(=O)=O)n1 [Compound 65, (R)-3-((1-(2-(5-fluoroisoindolin-2-yl)-3,6-dimethyl-4-oxo-3,4-dihydro-quinazolin-8-yl)ethyl)amino)-6-methoxy-N-(methylsulfonyl) picolinamide]
3 | ≥ 1 | 0.1 to 0.25 | 0.25 to 0.5 | 1 to 5 | Cc1cc2c(=O)n(C)c(N3Cc4ccc(F)cc4C3)nc2c([C@@H](C)Nc2ccc(Cl)nc2C(=O)NS(C)(=O)=O)n1 [Compound 72, (R)-6-chloro-3-((1-(2-(5-fluoroisoindolin-2-yl)-3,6-dimethyl-4-oxo-3,4-dihydro-pyrido[3,4-d]pyrimidin-8-yl)ethyl)amino)-N-(methylsulfonyl)picolinamide]
4 | ≥ 1 | ≥ 1 | 0.5 to 1 | 1 to 5 | Cc1cc([C@@H](C)Nc2ccc(Cl)nc2C(=O)NS(C)(=O)=O)c2nc(-c3cccc(F)c3F)n(C)c(=O)c2c1 [Compound 82, (R)-6-chloro-3-((1-(2-(2,3-difluorophenyl)-3,6-dimethyl-4-oxo-3,4-dihydroquinazolin-8-yl)ethyl)amino)-N-(methylsulfonyl)picolinamide]
5 | ≥ 1 | ≥ 1 | 1 to 5 | ≥ 5 | Cc1cc([C@H](C)Nc2ccccc2S(=O)(=O)NC(=O)C(F)F)c2nc(N3Cc4ccc(F)cc4C3)n(C)c(=O)c2c1 (single isomer, unassigned) [Compound 103, 2,2-difluoro-N-((2-((1-(2-(5-fluoroisoindolin-2-yl)-3,6-dimethyl-4-oxo-3,4-dihydroquinazolin-8-yl)ethyl)amino)phenyl)sulfonyl)acetamide]
6 | < 0.1 | 0.1 to 0.25 | 0.25 to 0.5 | 1 to 5 | C[C@@H](Nc1ccc(Cl)nc1C(=O)NS(C)(=O)=O)c1cc(F)cc2c(=O)n(C)c(N3Cc4ccc(F)cc4C3)nc12 [Compound 66, (R)-6-chloro-3-((1-(6-fluoro-2-(5-fluoroisoindolin-2-yl)-3-methyl-4-oxo-3,4-dihydroquinazolin-8-yl)ethyl)amino)-N-(methylsulfonyl) picolinamide]
7 | ≥ 1 | 0.1 to 0.25 | < 0.25 | 1 to 5 | Cc1cc([C@@H](C)Nc2ccc(Cl)nc2C(=O)NS(C)(=O)=O)c2nc(N3Cc4cnn(C(C)C)c4C3)n(C)c(=O)c2c1 [Compound 49, (R)-6-chloro-3-((1-(2-(1-isopropyl-4,6-dihydropyrrolo[3,4-c]pyrazol-5(1H)-yl)-3,6-dimethyl-4-oxo-3,4-dihydroquinazolin-8-yl)ethyl)amino)-N-(methylsulfonyl) picolinamide]
8 | ≥ 1 | ≥ 1 | 1 to 5 | ≥ 5 | Cc1cc([C@H](C)Nc2cn(C)nc2C(=O)NS(C)(=O)=O)c2nc(N3Cc4ccc(F)cc4C3)n(C)c(=O)c2c1 (single isomer, unassigned) [Compound 107, 4-((1-(2-(5-fluoroisoindolin-2-yl)-3,6-dimethyl-4-oxo-3,4-dihydroquinazolin-8-yl)ethyl)amino)-1-methyl-N-(methylsulfonyl)-1H-pyrazole-3-carboxamide]
9 | ≥ 1 | ≥ 1 | 0.5 to 1 | 1 to 5 | Cc1cc([C@@H](C)Nc2ccc(Cl)nc2C(=O)NS(C)(=O)=O)c2nc(N3CC4(COC4)C3)n(C)c(=O)c2c1 [Compound 46, (R)-6-chloro-3-((1-(3,6-dimethyl-4-oxo-2-(2-oxa-6-azaspiro[3.3]heptan-6-yl)-3,4-dihydroquinazolin-8-yl)ethyl)amino)-N-(methylsulfonyl) picolinamide]
10 | ≥ 1 | 0.25 to 0.5 | < 0.25 | 1 to 5 | Cc1cc([C@@H](C)Nc2ccc(Cl)nc2C(=O)NS(C)(=O)=O)c2nc(-c3cnc(C)c(F)c3)n(C)c(=O)c2c1 [Compound 91, (R)-6-chloro-3-((1-(2-(5-fluoro-6-methylpyridin-3-yl)-3,6-dimethyl-4-oxo-3,4-dihydroquinazolin-8-yl)ethyl)amino)-N-(methylsulfonyl) picolinamide]
11 | ≥ 1 | 0.5 to 1 | < 0.25 | 1 to 5 | C[C@@H](Nc1ccc(Cl)nc1C(=O)NS(C)(=O)=O)c1cccc2c(=O)n(C)c(N3CCC(F)(F)CC3)nc12 [Compound 39, (R)-6-chloro-3-((1-(2-(4,4-difluoropiperidin-1-yl)-3-methyl-4-oxo-3,4-dihydroquinazolin-8-yl)ethyl)amino)-N-(methylsulfonyl) picolinamide]
12 | ≥ 1 | 0.5 to 1 | < 0.25 | 1 to 5 | C[C@@H](Nc1ccc(Cl)nc1C(=O)NS(C)(=O)=O)c1cc(F)cc2c(=O)n(C)c(N3Cc4cnn(C)c4C3)nc12 [Compound 28, (R)-6-chloro-3-((1-(6-fluoro-3-methyl-2-(1-methyl-4,6-dihydropyrrolo[3,4-c]pyrazol-5(1H)-yl)-4-oxo-3,4-dihydroquinazolin-8-yl)ethyl)amino)-N-(methylsulfonyl) picolinamide]
13 | ≥ 1 | ≥ 1 | 1 to 5 | ≥ 5 | Cc1cc([C@@H](C)Nc2cn(C)nc2C(N)=O)c2nc(N3Cc4ccc(F)cc4C3)n(C)c(=O)c2c1 (single isomer, unassigned) [Compound 108]
14 | ≥ 1 | ≥ 1 | 0.5 to 1 | ≥ 5 | Cc1cc([C@@H](C)Nc2ccc(Cl)nc2C(=O)NS(=O)(=O)N(C)C)c2nc(N3Cc4ccc(F)cc4C3)n(C)c(=O)c2c1 [Compound 67, (R)-6-chloro-N-(N,N-dimethyl-sulfamoyl)-3-((1-(2-(5-fluoro-isoindolin-2-yl)-3,6-dimethyl-4-oxo-3,4-dihydroquinazolin-8-yl)ethyl)amino)picolinamide]
15 | ≥ 1 | ≥ 1 | 0.5 to 1 | 1 to 5 | Cc1cc([C@@H](C)Nc2ccc(Cl)nc2C(=O)NS(C)(=O)=O)c2nc(-c3cnc(C)nc3)n(C)c(=O)c2c1 [Compound 86, (R)-6-chloro-3-((1-(3,6-dimethyl-2-(2-methylpyrimidin-5-yl)-4-oxo-3,4-dihydroquinazolin-8-yl)ethyl)amino)-N-(methylsulfonyl) picolinamide]
16 | ≥ 1 | 0.25 to 0.5 | 1 to 5 | 1 to 5 | Cc1cc([C@@H](C)Nc2ccc(Cl)nc2C(=O)NS(C)(=O)=O)c2nc(OCc3ccccc3)n(C)c(=O)c2c1 [Compound 50, (R)-3-((1-(2-(benzyloxy)-3,6-dimethyl-4-oxo-3,4-dihydroquinazolin-8-yl)ethyl)amino)-6-chloro-N-(methylsulfonyl) picolinamide]
17 | ≥ 1 | ≥ 1 | 0.25 to 0.5 | ≥ 5 | Cc1cc([C@@H](C)Nc2ccccc2S(N)(=O)=O)c2nc(N3Cc4ccc(F)cc4C3)n(C)c(=O)c2c1 (single isomer, unassigned) [Compound 104, 2-((1-(2-(5-fluoroisoindolin-2-yl)-3,6-dimethyl-4-oxo-3,4-dihydroquinazolin-8-yl)ethyl)amino) benzenesulfonamide]

Row | Compound | IC50 [1] [µM] | IC50 [2] [µM] | IC50 [3] [µM] | IC50 [4] [µM]
18 | Cc1cc([C@@H](C)Nc2ccc(Cl)nc2C(=O)NS(C)(=O)=O)c2nc(OC3CCC3)n(C)c(=O)c2c1 [Compound 52, (R)-6-chloro-3-((1-(2-cyclobutoxy-3,6-dimethyl-4-oxo-3,4-dihydroquinazolin-8-yl)ethyl)amino)-N-(methylsulfonyl) picolinamide] | ≥ 1 | 0.1 to 0.25 | 0.5 to 1 | 1 to 5
